Measured values from patent US11591658B2, “Methods for sub-typing and treating cancer” (HI-STEM gGmbH, priority 2017, dated 2023).

What was measured:
[1] = tested on: AML cells with long-term BCAT1-overexpression; assay: Sensitivity of long-term BCAT1-overexpressing AML cells to daunorubicin; type: cell-based; details: FIG. 5i
Text: AML patient survival is usually associated with sensitivity to standard chemotherapy^23,24. […] Along these lines, BCAT1 expression was consistently higher (on average 6.6-fold) in the relapse versus the paired diagnostic sample (FIG. 5j).

EGLN1 = molecular target: T1, EGLN1 (Homo sapiens, UniProt Q9GZT9); assay: HIF1 protein levels in BCAT1 knockdown cells treated with cobalt chloride; type: cell-based; details: BCAT1 knockdown cells (HL-60), cobalt chloride given to inhibit EGLN1 activity, FIG. 4g
T1 construct: endogenous in cells; host or cells: HL-60 AML cells transduced with shBCAT1 (BCAT1 knockdown)
Text: To gain additional mechanistic insight into cellular pathways affected by BCAT1, we utilized the HL-60 AML cell line. […] Western blot analysis confirmed HIF1 as downstream target of BCAT1 (FIG. 4e), and decreased HIF1 levels were due to enhanced protein degradation since the relative amount of hydroxylated Proline564 was increased after BCAT1 knockdown (FIG. 4f), as intracellular αKG is a co-factor of EGLN1 activity^14. […] Finally, lentiviral overexpression of HIF1 as well as shRNA-mediated knockdown of EGLN1 was sufficient to rescue the proliferation and survival defect after BCAT1-KD (FIG. 4h, i). Together, these analyses place BCAT1 upstream of HIF1 mediating its effect via the αKG-dependent activation of EGLN1. […] Knockdown of HIF1 is sufficient to abrogate LSC function^16.

T1 sequence (Q9GZT9 whole entry): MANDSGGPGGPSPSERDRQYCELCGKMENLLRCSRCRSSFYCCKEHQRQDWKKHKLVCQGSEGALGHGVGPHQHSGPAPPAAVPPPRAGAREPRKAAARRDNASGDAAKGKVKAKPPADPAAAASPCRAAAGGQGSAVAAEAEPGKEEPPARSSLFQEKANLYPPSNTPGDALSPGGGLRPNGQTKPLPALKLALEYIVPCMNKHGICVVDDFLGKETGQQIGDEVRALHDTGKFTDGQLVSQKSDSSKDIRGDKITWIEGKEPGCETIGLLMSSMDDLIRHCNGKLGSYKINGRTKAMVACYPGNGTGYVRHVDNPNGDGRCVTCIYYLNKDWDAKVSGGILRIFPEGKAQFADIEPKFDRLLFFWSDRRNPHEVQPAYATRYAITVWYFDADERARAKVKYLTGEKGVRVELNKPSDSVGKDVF

| Compound | resistance to daunorubicin [1] | HIF1 protein levels (EGLN1) |
| --- | --- | --- |
| COc1cccc2c1C(=O)c1c(O)c3c(c(O)c1C2=O)C[C@@](O)(C(C)=O)C[C@@H]3O[C@H]1C[C@H](N)[C@H](O)[C@H](C)O1 [daunorubicin] | increased resistance |  |
| [Cl][Co][Cl] [cobalt chloride] |  | attenuated decrease of HIF1 protein levels |
